Experimental findings from patent publication US4335247A, “Novel nitrosourea derivatives and process for their production” (Kowa Co., Ltd., priority 1980, dated 1982) are described below.

The nature of data set [1]: Acute toxicity (median lethal dose, intraperitoneal). The settings on record: mouse, in vivo, ip; intraperitoneal injection, ddy mice, Litchfield-Wilcoxon method. Here is the method: The median lethal dose (LD50) of each of the test compounds was determined by the Litchfield-Wilcoxon method after the intraperitoneal injection of the compound into ddy mice.
Another data set deals with P388 cancer cell. Description: Anti-tumor test, P388-inoculated mice (survival effect). The format is in vivo. The settings on record: Mus musculus, P388, ip, intraperitoneal, CDF1 mice; for response vs control in vivo at 12.5 mg/kg / responders at 12.5 mg/kg: 12.5 mg/Kg/day; for response vs control in vivo at 25 mg/kg / responders at 25 mg/kg: 25 mg/Kg/day; for response vs control in vivo at 50 mg/kg / responders at 50 mg/kg: 50 mg/Kg/day. Here is the method: Each experimental group was composed of six CDF1 mice. The mice were inoculated intraperitoneally with 10^6 P388 cancer cell, and the test compounds suspended in a gum arabic were administered intraperitoneally to the animals 24 hours and 5 days, respectively, after the inoculation. The survival effect of each of the compounds was expressed by the percentage of the survival days of the treated animals in each group relative to those of the control animals.

Where [2] appears, read: 24 hours and 5 days after inoculation, read-out: Survival Effect T/C.
Where [3] appears, read: of six mice, read-out: Cure (converted).
Where [4] appears, read: of six mice, read-out: Tumored Survivors (converted).
The mark [5] stands for this setting: 100 mg/Kg/day, 24 hours and 5 days after inoculation, read-out: Survival Effect T/C.

Each structure is given as a SMILES string. Read-outs that look alike come from different tables or passages of the source.

For `C[C@@H](O)[C@H](NC(=O)N(CCCl)N=O)C(=O)Nc1nncs1` (relative stereo) [L], the LD50 (commonly the dose at which mortality reaches 50%) in data set [1] worked out at 65 mg/kg. In the data set on P388 cancer cell (setting [2]), the response vs control in vivo at 12.5 mg/kg came out at 153%, the response vs control in vivo at 25 mg/kg worked out at 93% and the response vs control in vivo at 50 mg/kg amounted to 81%. The responders at 25 mg/kg in the data set with P388 cancer cell (setting [3]) is 16.7%.

Take `O=NN(CCCl)C(=O)Nc1nncs1` [A]: the 50% lethal dose (LD50) in data set [1] was found to be 78 mg/kg. For the same compound, in the data set on P388 cancer cell (setting [2]), the response vs control in vivo at 12.5 mg/kg was 170%, the response vs control in vivo at 25 mg/kg was determined as 173% and the response vs control in vivo at 50 mg/kg was 172%.

Take `CC(C)[C@H](NC(=O)N(CCCl)N=O)C(=O)O` [B]: the LD50 in data set [1] came out at 72 mg/kg. In addition, in the data set with P388 cancer cell (setting [2]), the response vs control in vivo at 25 mg/kg was 230% and the response vs control in vivo at 50 mg/kg was determined as 297%. Further, the responders at 50 mg/kg with P388 cancer cell (setting [3]) was 16.7%. Further, the responders at 50 mg/kg in the data set with P388 cancer cell (setting [4]) was 16.7%.

In data set [1], `CC(C)[C@H](NC(=O)N(CCCl)N=O)C(=O)Nc1nncs1` [D] showed an LD50 of 49 mg/kg. Also, the response vs control in vivo at 6.25 mg/kg in the data set on P388 cancer cell (6.25 mg/Kg/day, 24 hours and 5 days after inoculation, read-out: Survival Effect T/C) is 223%. Further, in the data set with P388 cancer cell (setting [2]), the response vs control in vivo at 12.5 mg/kg worked out at 281% and the response vs control in vivo at 25 mg/kg was 291%. Further, the responders at 25 mg/kg in the data set with P388 cancer cell (setting [3]) was 83.3%.

`CC(C)CC(NC(=O)N(CCCl)N=O)C(=O)Nc1nncs1` (stereo not drawn) [E] returned an LD50 in data set [1] of 82 mg/kg. In the data set on P388 cancer cell (setting [2]), the response vs control in vivo at 12.5 mg/kg was 220%, the response vs control in vivo at 25 mg/kg was found to be 303% and the response vs control in vivo at 50 mg/kg came to 303%. For the same compound, in the data set on P388 cancer cell (setting [3]), the responders at 25 mg/kg was 33.3% and the responders at 50 mg/kg is 83.3%. Besides, the responders at 25 mg/kg in the data set with P388 cancer cell (setting [4]) was 16.7%.

Turning to `CC(C)C[C@H](NC(=O)N(CCCl)N=O)C(=O)Nc1nncs1` [F], the LD50 in data set [1] was 85 mg/kg. In the data set with P388 cancer cell (setting [2]), the response vs control in vivo at 12.5 mg/kg is 292% and the response vs control in vivo at 25 mg/kg amounted to 303%. In the data set on P388 cancer cell (setting [3]), the responders at 12.5 mg/kg is 16.7% and the responders at 25 mg/kg was 50%. In the data set on P388 cancer cell (setting [4]), the responders at 12.5 mg/kg is 16.7% and the responders at 25 mg/kg is 33.3%.

For `CC[C@H](C)[C@H](NC(=O)N(CCCl)N=O)C(=O)Nc1nncs1` [G], the LD50 in data set [1] is 78 mg/kg. In addition, in the data set on P388 cancer cell (setting [2]), the response vs control in vivo at 12.5 mg/kg amounted to 247%, the response vs control in vivo at 25 mg/kg was 297% and the response vs control in vivo at 50 mg/kg came to 297%. Besides, in the data set with P388 cancer cell (setting [3]), the responders at 12.5 mg/kg was 16.7%, the responders at 25 mg/kg is 16.7% and the responders at 50 mg/kg is 50%. Also, in the data set with P388 cancer cell (setting [4]), the responders at 25 mg/kg was 50% and the responders at 50 mg/kg is 33.3%.

Turning to `CSCC[C@H](NC(=O)N(CCCl)N=O)C(=O)Nc1nncs1` [H], the LD50 in data set [1] was 67 mg/kg. In the data set on P388 cancer cell (setting [2]), the response vs control in vivo at 12.5 mg/kg was determined as 235%, the response vs control in vivo at 25 mg/kg stood at 294% and the response vs control in vivo at 50 mg/kg was 294%. For the same compound, in the data set on P388 cancer cell (setting [3]), the responders at 12.5 mg/kg is 16.7%, the responders at 25 mg/kg was 50% and the responders at 50 mg/kg is 83.3%. Further, in the data set with P388 cancer cell (setting [4]), the responders at 25 mg/kg is 33.3% and the responders at 50 mg/kg is 16.7%.

Turning to `O=NN(CCCl)C(=O)N[C@@H](C(=O)Nc1nncs1)c1ccccc1` [I], the LD50 in data set [1] worked out at 69 mg/kg. Also, in the data set with P388 cancer cell (setting [2]), the response vs control in vivo at 12.5 mg/kg turned out to be 297%, the response vs control in vivo at 25 mg/kg came to 297% and the response vs control in vivo at 50 mg/kg amounted to 297%. In the data set with P388 cancer cell (setting [3]), the responders at 12.5 mg/kg was 33.3%, the responders at 25 mg/kg is 33.3% and the responders at 50 mg/kg is 83.3%. Also, in the data set on P388 cancer cell (setting [4]), the responders at 12.5 mg/kg was 16.7% and the responders at 25 mg/kg is 33.3%.

`O=NN(CCCl)C(=O)N[C@@H](Cc1ccccc1)C(=O)Nc1nncs1` [J]: in data set [1], the LD50 stood at 74 mg/kg. For the same compound, in the data set on P388 cancer cell (setting [2]), the response vs control in vivo at 12.5 mg/kg came out at 297%, the response vs control in vivo at 25 mg/kg stood at 297% and the response vs control in vivo at 50 mg/kg was 297%. In the data set with P388 cancer cell (setting [3]), the responders at 12.5 mg/kg is 33.3%, the responders at 25 mg/kg is 83.3% and the responders at 50 mg/kg was 66.7%. Besides, in the data set with P388 cancer cell (setting [4]), the responders at 12.5 mg/kg was 16.7% and the responders at 50 mg/kg is 16.7%.

On to `O=NN(CCCl)C(=O)NC1(C(=O)Nc2nncs2)CCCC1` [K], for which the LD50 in data set [1] came to 53 mg/kg. Moreover, in the data set with P388 cancer cell (setting [2]), the response vs control in vivo at 12.5 mg/kg is 175%, the response vs control in vivo at 25 mg/kg was found to be 176% and the response vs control in vivo at 50 mg/kg was determined as 176%.

Regarding `O=NN(CCCl)C(=O)N[C@@H](Cc1c[nH]c2ccccc12)C(=O)Nc1nncs1` [M], the LD50 in data set [1] came out at 73 mg/kg. In addition, in the data set with P388 cancer cell (setting [2]), the response vs control in vivo at 25 mg/kg stood at 294% and the response vs control in vivo at 50 mg/kg stood at 294%. Moreover, in the data set with P388 cancer cell (setting [3]), the responders at 25 mg/kg was 83.3% and the responders at 50 mg/kg is 50%. Moreover, in the data set on P388 cancer cell (setting [4]), the responders at 50 mg/kg was 33.3%. For the same compound, the response vs control in vivo at 100 mg/kg in the data set with P388 cancer cell (setting [5]) came to 107%. Also, the responders at 100 mg/kg in the data set on P388 cancer cell (100 mg/Kg/day, of six mice, read-out: Cure (converted)) is 16.7%.

With `CC(C)[C@@H](NC(=O)N(CCCl)N=O)C(=O)Nc1nncs1` [N], the LD50 in data set [1] is 68 mg/kg. For the same compound, in the data set on P388 cancer cell (setting [2]), the response vs control in vivo at 25 mg/kg was 217% and the response vs control in vivo at 50 mg/kg was 99%. In the data set on P388 cancer cell (setting [3]), the responders at 25 mg/kg was 16.7% and the responders at 50 mg/kg is 33.3%.

`CC(C)C[C@@H](NC(=O)N(CCCl)N=O)C(=O)Nc1nncs1` [O] registered a median lethal dose (LD50) in data set [1] of 61 mg/kg. Further, in the data set on P388 cancer cell (setting [2]), the response vs control in vivo at 25 mg/kg amounted to 190% and the response vs control in vivo at 50 mg/kg worked out at 217%. For the same compound, the response vs control in vivo at 100 mg/kg in the data set on P388 cancer cell (setting [5]) is 188%.
